From patent US20210046143A1, “METHOD FOR TREATMENT OF THE HUMAN BODY BY THERAPY BY ADMINISTERING A COMPOSITION COMPRISING A PLANT EXTRACT OF THE SPECIE HEDYCHIUM CORONARIUM” (Societe D'exploitation De Produits Pour Les Industries …, priority 2016, published 2021)

Legend:
Type in all cases: cell-based
[1] = system: normal human keratinocytes; assay: ROS detection with H2DCFDA probe in normal human keratinocytes; conditions: 20 minutes
Text: • 1)—Background Information The aim of the present evaluation was to evaluate the antioxidant and antipollution effects of the extract HCR, against oxidative stress in normal human cultured keratinocytes extracted from abdominal plastic surgery (donor), using the H2DCFDA probe. […] It is cell-permeant and stable. When it penetrates the cell, acetate groups are cleaved by intracellular esterases. The resulting product is the dichlorodihydrofluorescein (or H2DCF), non-fluorescent. […] The probe oxidation is not specific of one type of ROS. The fluorescence is detected at wavelengths of 490 nm (excitation) and 525 nm (emission). […] A XTT assay was previously performed, to check the cells viability, in order to determine the concentrations to be tested, as described in Example 2. • 2)—Evaluation of Antioxidant Effect (H2DCFDA Probe) Normal human keratinocytes were seeded in 96-well microplates and are then treated with the test compound to be tested for 24 hours, before adding the fluorescent probe for detection of ROS and stimulating or not by the pollutant or hydrogen peroxide. This test is based on the use of a detection system, a probe, which is degraded and fluoresces on contact with ROS. […] After incubation, fluorescence was read at 490 nm (excitation) and 525 nm (emission) wavelengths (Tecan Safire II reader). Data are expressed as RFU (fluorescence units). […]

[2] = system: ATP production by normal human fibroblasts (NHF); assay: ATP titration in fibroblasts, UVA-irradiated or not; conditions: 500 μM
Description: (§1) a)—In order to check the effects of UV and the tested product on cells metabolism, ATP and NAD^+/NADH titrations were performed. • (i)—Cells were seeded into 96-wells plates (at a cell density of 5,000 cells per well, i.e. 15,000 NHF/cm^2), in the same medium as previously described, one day before treatment. Then the treatment and irradiation timing was the same: first application for twenty-four hours (in medium without sera), then UVA-irradiation or not (same dose) and finally a second treatment for another twenty-four hours. As formerly, from the beginning to the end of the experiment, cells were incubated at 37° C./5% CO2. […] Measured quantity of this product (absorbance) is proportional to total NAD (NAD^+ and NADH) in each sample. • (v)—The ATP assay kit is an ATP monitoring system based on firefly (Photinus pyralis) luciferase. Added luciferase and D-luciferin react with ATP in samples to produce light, which measure (luminescence) is proportional to the ATP concentration. • b)—Raw data of both ATP and NAD^+/NADH titrations, i.e. luminescence units (RLU) or OD measurements obtained for respective standards, were plotted on graphics to determine standard curves. Then, the concentrations of ATP or NAD^+/NADH measured in the samples were determined. Quantitative values of each condition were averaged. […]

[3] = system: Normal human fibroblasts (NHF); assay: Autophagic activity (MDC assay) in fibroblasts irradiated with blue light; conditions: for Decrease of autophagic activity of irradiated fibroblast cells: irradiated at 453 nanometers
Description: • 1)—Background Information The purpose of the study is to evaluate effects of one HCR extracts on autophagic activities of in fibroblast irradiated with 453 nanometers blue light. The cells (normal human fibroblasts or (NHF)) are cultured as primary monolayer. Product to be tested is applied during 24 hours before irradiation and the n the product to be tested is applied during 24 hours . then autophagic activity is measured (MDC). Lysosomes are cytoplasmic organelles that permit recycling of cellular materials that have exceeded their lifetime or are otherwise no longer useful. Their main function is to digest endogeneous or exogeneous substrates (so called autophagy) in eukaryotic cells. Lysosomes break down cellular waste products, fats, carbohydrates, proteins, and other macromolecules into small compounds, which are transferred back into the cytoplasm as new cell-building materials. Indeed, its lipid membrane contains many enzymes, proton pumps and transport proteins. Acid pH is regulated to allow optimum activities of acid hydrolases [1]-[2]. The fluorescent LysoTracker probe is structured to easily insert in living cells (a fluorophore is linked to a weak base that is only partially protonated at neutral pH). This characteristic permits to this labeling/staining to be very selective for acid organelles i.e. the lysosomes. Then, effects of radiations, like blue light for instance, at lysosomal level can be evaluated. Indeed, these radiations lead to free radical formation and affect the normal lysosomes network, its distribution in the cell space. This can be visualized with specific fluorescent probe LysoTracker. Autophagy is an eukaryotic cell process that allow cytoplasmic materials digestion in a vacuole that fuses with the lysosome. Indeed, lysosomes can directly incorporate cytoplasmic fragments (micro-autophagy), or via autophagic vacuoles, named autophagosomes (macro-autophagy, fusion of lysosome and autophagosome is so called autolysosome). Autophagy is an important mechanism that allows the cell to mobilize its energy stocks to defend and destroy its damaged organelles and then avoid serious effects. This process permits elimination and replacement of proteins and non-functional organelles, then to ensure homeostasis. It is an essential cytoprotective mechanism that allows adaptive cell responses to different kinds of stress or damages, as nutritive privation (starvation). So it is necessary to cell survival, but also to other fundamental physiologic phenomena as development, immunity, cell differentiation (including keratinocytes differentiation to corneocytes in the epidermis). It is involved in longevity control, aging, and development of pathologies as cancer or diabetes, infectious, metabolic, or neuro-degenerative diseases. […] Three concentrations of the extract HCR are tested (weight/volume % of dry extract or DE, as it is a liquid extract), each dose being evaluated as quintuplicate (5 wells). Irradiation dose of 453 nm blue light is 40 J/cm^2 (23 mW/cm^2 for 29 minutes). b)—Cells are seeded into 96-wells microplates (at a cell density of 10,000 cells per well, i.e. 30,000 NHF/cm2), 24 hours before treatment (incubation at 37° C./5% CO2). […] Fibroblasts are then treated again with the product (curative effect) for another 24 h (so the total application is 48 h). Cells are seeded in complete medium: Dulbecco's modified Eagle medium or DMEM (Gibco 41966), with antibiotics (Gibco 15140) and 10% of foetal bovine serum or FBS (Gibco 10270). Treatments are done in medium without FBS. Irradiation is done in PBS (phosphate buffer saline). All incubation/treatment times are at 37° C./5% CO2 (except irradiation, done at room temperature). At the end of treatment, wells are delicately rinsed (PBS) and 0.05 mM MDC probe is applied on cells (Sigma 30432) (37° C./5% CO2). After incubation during 30 minutes and washes, fluorescence is measured at 380 nm (excitation) and 525 nm (emission) wavelengths (Tecan Safire II machine). […]

[4] = system: NAD+/NADH production by normal human fibroblasts (NHF); assay: NAD+/NADH titration in fibroblasts, UVA-irradiated or not; conditions: Vitamin C 500 μM, UVA-irradiated
Description: as §1

[5] = system: lysosomes network of normal human fibroblasts (NHF); assay: Lysosomal network protection (LysoTracker staining) in UVA-irradiated fibroblasts; conditions: 500 μM
Description: b)-Normal human fibroblasts (NHF) extracted after plastic surgery from mammary skin dermis of a donor, were cultured as primary monolayers; a)-Fibroblasts seeding was carried out as described in Example 2. b)-Cells were then incubated with a fluorescent probe (Invitrogen LysoTrackerTM). They were observed and photographed with x40 objective (Olympus CK40 microscope and […] Microvision software), with or without appropriate fluorescent filter. The photos allowed the visualization respectively of the lysosomes network or of the whole cells. c)-Fluorescence was quantified with Colombus software, by HCS Pharma (Rennes, France), as mean intensity (3 images for each condition). It is the mean value of intensity for each pixel of staining, contained in the cell area stained with LysoTracker (number of cells of each image is taken into account, as the final value is the mean of all cells values on the image). • 4)-Results

[6] = system: mitochondria network of normal human fibroblasts (NHF); assay: Mitochondrial network protection (MitoTracker staining) in UVA-irradiated fibroblasts; conditions: 500 μM, positive control
Description: b)-Normal human fibroblasts (NHF) extracted after plastic surgery from mammary skin dermis of a donor, were cultured as primary monolayers; a)-Fibroblasts were seeded into Petri dishes (at a cell density of 150,000 cells per dish, with a diameter of 60 mm, i.e. 7,700 NHF/cm^2), in the same medium as previously described (complete medium, i.e. with FBS), one day before treatment (incubation at 37° C.; 5% CO2). Each test compound concentration/dose (in one dish each) was then applied for 24 hours (in medium without sera; incubation at 37° C./5% CO2). […] b)-To evaluate the mitochondria staining, cells were incubated with a fluorescent probe (Invitrogen MitoTrackerTM). Cells were observed and photos were taken with x40 objective (Olympus […] microscope and […] Microvision software), with or without appropriate fluorescent filter. The photos allowed the visualization of the mitochondria network or of the whole cells, respectively. • 4)-Evaluation of the Effects on the Metabolic Activity (ATP & NAD^+/NADH Titrations)

Compound: c1ccc2c(c1)cc1ccc3cccc4ccc2c1c34 [BaP, benzo(a)pyrene]
- Stimulation of ROS production comparatively to non-stimulated acetone solvent control ([1]; BaP 36 μM): +141%

Compound: OO [hydrogen peroxide]
- Stimulation of ROS production comparatively to unstimulated control ([1]; hydrogen peroxide 1 mM): +808%

Compound: O=C1O[C@H]([C@@H](O)CO)C(O)=C1O [vitamin C, L-ascorbic acid]
- ATP synthesis, change compared to irradiated control [2]: +61%
- RFU (means), MDC autophagic activity ([3]; 500 μMoles, irradiated (453 nanometers) NHF): 95 RFU
- RFU (means), MDC autophagic activity ([3]; 500 μMoles, non irradiated NHF): 60 ^(***^) RFU
- Decrease of autophagic activity of irradiated fibroblast cells ([3]; vitamin C): 14%
- NAD+/NADH release by UV-irradiated cells [4]: did not show expected positive effect
- LysoTracker fluorescence mean intensity ([5]; highly significant): higher
- Protection of lysosomes network against UV (LysoTracker images) ([5]; positive control): diminished the effects of UVA
- Protection of mitochondria network against UV (MitoTracker images) [6]: effects of UVA were less distinct

Compound: CC(=O)Oc1c(C)c(C)c2c(c1C)CCC(C)(CCC[C@H](C)CCC[C@H](C)CCCC(C)C)O2 (stereo partly drawn) [vitamin E, α-tocopherol acetate]
- RFU (means), MDC autophagic activity ([3]; 200 μMoles, irradiated (453 nanometers) NHF): 86 ^(*^) RFU
- RFU (means), MDC autophagic activity ([3]; 200 μMoles, non irradiated NHF): 76 ^(**^) RFU
- Decrease of autophagic activity of irradiated fibroblast cells ([3]; vitamin E): 22%
